SMILES strings stand for the structures.

The text below walks through data of patent US8536210B2, “Compounds for inhibiting semicarbazide-sensitive amine oxidase (SSAO)/vascular adhesion protein-1 (VAP-1) and uses thereof for treatment and prevention of diseases” (Semmelweis Egyetem, priority 2008, dated 2013).

For data set [1], the target named is human recombinant VAP-1 (SSAO/VAP-1 enzyme) (Homo sapiens (Human), UniProt Q16853). The experiment in a line: In vitro inhibition of SSAO activity on human recombinant VAP-1 (colorimetric, benzylamine substrate). Type of data set: biochemical. The conditions noted are these: for IC50: recombinant SSAO/VAP-1 in CHO cell homogenate, 1 mM benzyl amine. The protocol:
For determining the SSAO/VAP-1 activity, the colorimetric method described by Holt, A (Holt, A., Anal. Biochem. 244, 384, 1997) for monoamine oxidase and analogous enzymes was used. Recombinant SSAO/VAP-1 enzyme was expressed in Chinese Hamster Ovary cells (CHO). These cells and cell cultures have been described earlier (Smith, D. J. et al, J. Exp. Med. 188, 17, 1998). The cell homogenate was prepared as follows: a suspension was made of approximately 3.6×10^8 cells in 25 ml lysation buffer (150 mM NaCl, 10 mM Tris-base pH 7.2, 1.5 mM MgCl2, 1% NP40), that was stirred for 1 night and incubated at 4° C. The homogenate was centrifugated (18000 g). The supernatant was used directly afterwards for the measurement. SSAO/VAP-1 activity measurement was carried out as follows on 96 precisely microtitrated plates, a given amount of inhibitor was added to each. The amount of the inhibitors varied among the measurements, the final concentration being between 1 nM and 50 μM in general, in 20 μl aqueous total volume for all cases. Then 0.2 M potassium phosphate buffer (pH=7.6) was added, to obtain a total volume of 200 μl 50 μl freshly prepared chromogen solution was given, which contains 1 mM of vanillic acid, 500 μM 4-aminoantipyrin, 8 U/ml horse radish peroxidase, and such an amount of SSAO/VAP-1 containing CHO cell homogenate that causes a 0.6 A-490 per h change, the latter being in the linear coherence scope of the method. The plates were incubated for 30 min at 37° C. and the background absorbance was measured at 490 nm by a Wallac Victor II apparatus. For starting the enzyme reaction, 20 μl 10 mM benzyl amine solution was added, the final concentration of which was therefore 1 mM. The plates were reincubated at 37° C. for 1 h. The increase in the absorbance showing the SSAO/VAP-1 activity was measured at 490 nm. The inhibition was calculated in the % of the control absorbance corrected with the background absorbance, IC50 values were calculated using GraphPad Prism.

Data set [2] has as its system carrageenan-induced rat paw edema. Briefly: Inhibition of carrageenan-induced rat paw edema. It counts as in vivo. From the text: Carrageenan-induced rat paw edema has been extensively used in the evaluation of anti-inflammatory effects of various agents and it is useful in assessing the efficacy of compounds to alleviate acute inflammation (Whiteley P E, Dalrymple S A (1998) Models of inflammation: carrageenan-induced paw edema in the rat, in Current Protocols in Pharmacology (Enna S J, Williams M, Ferkany J W, Kenakin T, Porsolt R E, Sullivan J P eds) pp 5.4.1-5.4.3, John Wiley & Sons, New York.). Edema in the paws was induced by injecting 0.1 ml of a 1% solution of carrageenan intraplantary. […] […] Inhibitory effects are expressed in % values.
(Carrageenan injected into the paw causes an acute inflammation.)

Data set [3] concerns acetic acid induced writhing syndrome. The experiment in a line: Inhibition of acetic acid induced writhing on mice. Type of data set: in vivo. The conditions noted are these: 20 minutes prior to acetic acid. On the procedure:
The method described by Van der Wende (Van der Vende C, Margolin S, Fed. Proc., 15, 494, 1956) with the modifications of Witkin et al. (Witkin L B et al, J. Pharm. Exp. Ther., 133, 400, 1961) was applied. 0.2 ml of a 0.6% acetic acid solution was injected intraperitoneally, causing a typical writhing syndrome in 90% of the animals. Compounds of the invention were administered subcutaneously, 20 minutes prior to acetic acid exposure. Antianalgetic effect was determined by the formula, which is shown below, and is expressed in % values. (number of writhings in treatment group (5′)/number of writhings in control group (5′))×100

human recombinant VAP-1 (SSAO/VAP-1 enzyme), sequence (Q16853 whole entry): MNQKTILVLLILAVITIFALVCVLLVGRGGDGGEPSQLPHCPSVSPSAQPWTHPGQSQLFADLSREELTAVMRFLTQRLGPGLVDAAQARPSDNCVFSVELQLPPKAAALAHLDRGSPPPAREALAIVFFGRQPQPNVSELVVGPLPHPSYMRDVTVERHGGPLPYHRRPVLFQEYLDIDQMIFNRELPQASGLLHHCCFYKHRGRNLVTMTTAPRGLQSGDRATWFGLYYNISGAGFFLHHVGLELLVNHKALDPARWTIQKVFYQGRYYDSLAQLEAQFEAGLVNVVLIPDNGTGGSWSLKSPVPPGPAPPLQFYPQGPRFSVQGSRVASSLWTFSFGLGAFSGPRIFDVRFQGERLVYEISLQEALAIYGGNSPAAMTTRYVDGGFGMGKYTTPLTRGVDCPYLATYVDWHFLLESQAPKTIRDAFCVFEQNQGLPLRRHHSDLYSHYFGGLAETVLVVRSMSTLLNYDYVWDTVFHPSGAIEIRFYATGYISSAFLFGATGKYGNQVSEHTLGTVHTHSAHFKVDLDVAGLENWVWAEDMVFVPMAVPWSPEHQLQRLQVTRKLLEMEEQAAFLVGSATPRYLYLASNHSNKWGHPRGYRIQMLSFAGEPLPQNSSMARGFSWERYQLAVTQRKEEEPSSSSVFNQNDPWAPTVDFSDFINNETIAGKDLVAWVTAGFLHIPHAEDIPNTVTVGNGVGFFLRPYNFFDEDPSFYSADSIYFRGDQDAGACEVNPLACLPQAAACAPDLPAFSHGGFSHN

`COc1cccc(C=NO)c1C` [Compound 1, 3-Methoxy-2-methylbenzaldehyde oxime]: the melting point (as a rule, the temperature, or range, at which the solid turns liquid) amounted to 110 °C. The IC50 (commonly the concentration at which inhibition is half-maximal) in data set [1] is 102 µM.

For the compound `ON=Cc1cccc2cccc(N3CCCC3)c12` [Compound 5, 8-Pyrrolidino-1-naphthaldehyde oxime], in data set [1] (at 50 μM), the inhibition (usually the percentage by which the read-out fell short of the control) at 50 µM was 32%.

Consider `ON=Cc1c(O)ccc2c1OCO2` [Compound 6, 5-Hydroxy-1,3-benzodioxole-4-carbaldehyde oxime], for which the IC50 in data set [1] is 4.3 µM.

Regarding `CCOc1ccc2c(c1C=NO)OCO2` [Compound 7, 5-Ethoxy-1,3-benzodioxole-4-carbaldehyde oxime], the IC50 in data set [1] amounted to 40 µM.

Regarding `C=CCOc1ccc2c(c1C=NO)OCO2` [Compound 8, 5-(Allyloxy)-1,3-benzodioxole-4-carbaldehyde oxime], in data set [1], the IC50 was 95 µM.

For `ON=Cc1c(Br)ccc2c1OCO2` [Compound 9, 5-Bromo-1,3-benzodioxole-4-carbaldehyde oxime], the IC50 in data set [1] was found to be 14.9 µM. The “Inhibition of rat paw edema in %” value in data set [2] (7.5 mg/kg s.c., 60 min) turned out to be 63 ± 7 %; in data set [2] (7.5 mg/kg s.c., 120 min), 62 ± 6 %; in data set [2] (7.5 mg/kg s.c., 180 min), 66 ± 5 %; in data set [2] (15 mg/kg s.c., 60 min), 53 ± 5 %; in data set [2] (15 mg/kg s.c., 120 min), 52 ± 3 %; in data set [2] (15 mg/kg s.c., 180 min), 66 ± 7 %. Further, the “Inhibition of rat paw edema in %” value is recorded as 0% in data set [2] (30 mg/kg p.o., 60 min); 5 ± 1% in data set [2] (30 mg/kg p.o., 120 min); 0% in data set [2] (30 mg/kg p.o., 180 min); 54 ± 6 % in data set [2] (30 mg/kg s.c., 60 min); 40 ± 5 % in data set [2] (30 mg/kg s.c., 120 min); 50 ± 5 % in data set [2] (30 mg/kg s.c., 180 min). Besides, the results for the “Inhibition of writhing syndrome in %” value in data set [3] (15 mg/kg s.c.) and in data set [3] (30 mg/kg s.c.) were 84 ± 8 % and 80 ± 7 %, respectively.

With `CC1Oc2ccc(Br)c(C=NO)c2O1` (centres unmarked) [Compound 10, 5-Bromo-2-methyl-1,3-benzodioxole-4-carbaldehyde oxime], the inhibition at 500 µM in data set [1] worked out at 35%.

Turning to `ON=Cc1ccccc1-c1ccc2c(c1C=NO)OCO2` [Compound 12, 5-{2-[(hydroxyimino)methyl]phenyl}-1,3-benzodioxole-4-carbaldehyde oxime], in data set [1], the IC50 worked out at 180 µM.

With `CCOc1c(C=NO)c(=O)n(C)c(=O)n1C` [Compound 16, 6-Ethoxy-1,3-dimethyl-2,4-dioxo-1,2,3,4-tetrahydropyrimidine-5-carbaldehyde oxime], the “Inhibition of rat paw edema in %” value in data set [2] (30 mg/kg s.c., 60 min) worked out at 8 ± 1%; in data set [2] (30 mg/kg s.c., 120 min) it was 19 ± 2%; in data set [2] (30 mg/kg s.c., 180 min), 31 ± 4%. The results for the “Inhibition of writhing syndrome in %” value in data set [3] (15 mg/kg s.c.) and in data set [3] (30 mg/kg s.c.) were 86 ± 7 % and 96 ± 6 %, respectively.

In the case of `COc1c(C=NO)c(=O)n(C)c(=O)n1C` [Compound 17, 6-Methoxy-1,3-dimethyl-2,4-dioxo-1,2,3,4-tetrahydropyrimidine-5-carbaldehyde oxime], the IC50 in data set [1] amounted to 30 µM.

For `CCCOc1c(C=NO)c(=O)n(C)c(=O)n1C` [Compound 18, 1,3-Dimethyl-2,4-dioxo-6-propoxy-1,2,3,4-tetrahydropyrimidine-5-carbaldehyde oxime], the IC50 in data set [1] worked out at 18 µM.

For the compound `CCOc1c(C=NOC)c(=O)n(C)c(=O)n1C` [Compound 19, 6-Ethoxy-1,3-dimethyl-2,4-dioxo-1,2,3,4-tetrahydropyrimidine-5-carbaldehyde O-methyloxime], the IC50 in data set [1] was found to be 29 µM.

On to `CCCSc1c(C=NO)c(=O)n(C)c(=O)n1C` [Compound 21, 1,3-Dimethyl-2,4-dioxo-6-(propylthio)-1,2,3,4-tetrahydropyrimidine-5-carbaldehyde oxime], for which, in data set [1], the IC50 was 58 µM.

Consider `CSc1c(C=NO)c(=O)n(C)c(=O)n1C` [Compound 22, 1,3-Dimethyl-6-(methylthio)-2,4-dioxo-1,2,3,4-tetrahydropyrimidine-5-carbaldehyde oxime], for which the IC50 in data set [1] came to 48 µM. In addition, the “Inhibition of rat paw edema in %” value in data set [2] (7.5 mg/kg s.c., 60 min) was 15 ± 2%; in data set [2] (7.5 mg/kg s.c., 120 min), 55 ± 5 %; in data set [2] (7.5 mg/kg s.c., 180 min) it was 60 ± 5 %; in data set [2] (15 mg/kg s.c., 60 min), 60 ± 6 %; in data set [2] (15 mg/kg s.c., 120 min) it was 63 ± 7 %; in data set [2] (15 mg/kg s.c., 180 min) it was 65 ± 7 %. Moreover, the “Inhibition of rat paw edema in %” value in data set [2] (30 mg/kg p.o., 60 min) came out at 0%; in data set [2] (30 mg/kg p.o., 120 min) it was 21 ± 2%; in data set [2] (30 mg/kg p.o., 180 min), 21 ± 2%; in data set [2] (30 mg/kg s.c., 60 min) it was 58 ± 7 %; in data set [2] (30 mg/kg s.c., 120 min) it was 54 ± 5 %; in data set [2] (30 mg/kg s.c., 180 min), 72 ± 8 %. For the same compound, the “Inhibition of writhing syndrome in %” value in data set [3] (5 mg/kg s.c.) was found to be 70 ± 5 %; in data set [3] (15 mg/kg s.c.) it was 100%.

On to `CCSc1c(C=NO)c(=O)n(C)c(=O)n1C` [Compound 23, 6-(Ethylthio)-1,3-dimethyl-2,4-dioxo-1,2,3,4-tetrahydropyrimidine-5-carbaldehyde oxime], for which, in data set [1], the IC50 came to 111 µM.

As to `Cn1c(Sc2ccccc2)c(C=NO)c(=O)n(C)c1=O` [Compound 24, 1,3-Dimethyl-2,4-dioxo-6-(phenylthio)-1,2,3,4-tetrahydropyrimidine-5-carbaldehyde oxime], in data set [1], the IC50 was determined as 106 µM.

Turning to `CCSc1c(C=NOC)c(=O)n(C)c(=O)n1C` [Compound 25, 6-(Ethylthio)-1,3-dimethyl-2,4-dioxo-1,2,3,4-tetrahydropyrimidine-5-carbaldehyde O-methyloxime], in data set [1], the IC50 is 113 µM.

`C=CCN(C)c1c(C=NO)c(=O)n(C)c(=O)n1C` [Compound 27, 6-[Allyl(methyl)amino]-1,3-dimethyl-2,4-dioxo-1,2,3,4-tetrahydropyrimidine-5-carbaldehyde oxime]: in data set [1], the IC50 stood at 41 µM.

Regarding `Cn1ncc(N2CCCCC2)c(/C=N/O)c1=O` [Compound 29, E-2-Methyl-3-oxo-5-piperidino-2,3-dihydropyridazine-4-carbaldehyde oxime], the IC50 in data set [1] stood at 240 µM.

As to `COc1ccc(Cn2ncc(N3CCOCC3)c(/C=N/O)c2=O)cc1` [Compound 32, E-2-(4-Methoxybenzyl)-5-morpholino-3-oxo-2,3-dihydropyridazine-4-carbaldehyde oxime], the IC50 in data set [1] was found to be 263 µM.

Turning to `Cn1nc2c(c(C=NO)c1=O)N1CCCC1CO2` (centres unmarked) [Compound 35, 3-Methyl-2-oxo-2,3,6a,7,8,9-hexahydro-6H-pyridazino[3,4-b]pyrrolo[1,2-d][1,4]oxazine-1-carbaldehyde oxime], the inhibition at 500 µM in data set [1] is 55%.

As to `Cn1ncc(N2CCCC2)c(-c2ccccc2C=NO)c1=O` [Compound 38, 2-(2-Methyl-3-oxo-5-pyrrolidino-2,3-dihydropyridazin-4-yl)benzaldehyde oxime], the inhibition at 500 µM in data set [1] was determined as 31%.

Consider `ON=CCCc1nc(-c2ccccc2)c(-c2ccccc2)o1` [Compound 40, 3-(4,5-Diphenyl-1,3-oxazol-2-yl)propanal oxime], for which the IC50 in data set [1] was determined as 3.5 µM.

As for `COc1ccc2c(c1)c(CC(=O)O)c(C)n2C(=O)c1ccc(Cl)cc1` [Indomethacin, reference compound], the “Inhibition of rat paw edema in %” value is 32 ± 2 % in data set [2] (2.5 mg/kg p.o., 60 min); 51 ± 4 % in data set [2] (2.5 mg/kg p.o., 120 min); 53 ± 5 % in data set [2] (2.5 mg/kg p.o., 180 min).
